Experimental data taken from patent US11192891B2, “Diazaspiro ROCK inhibitors” (BRISTOL-MYERS SQUIBB COMPANY, priority 2017, dated 2021).

Target: ROCK2 (Homo sapiens, UniProt O75116)
Assay: ROCK kinase inhibition assay, FITC peptide substrate, LABCHIP 3000 readout
Assay type: biochemical
Settings: 5 μM ATP, 1.5 μM peptide substrate
Procedure: Compounds were dissolved in DMSO so that the final concentration of DMSO was <2%, and the reaction was initiated with Rho kinase variants. After incubation, the reaction was terminated by the addition of EDTA and the phosphorylated and non-phosphorylated peptides separated using a LABCHIP® 3000 Reader (Caliper Life Sciences). […] Compounds were tested in dose-response format, and the inhibition of kinase activity was calculated at each concentration of compound.

Sequence of ROCK2 (O75116 whole entry, species assumed): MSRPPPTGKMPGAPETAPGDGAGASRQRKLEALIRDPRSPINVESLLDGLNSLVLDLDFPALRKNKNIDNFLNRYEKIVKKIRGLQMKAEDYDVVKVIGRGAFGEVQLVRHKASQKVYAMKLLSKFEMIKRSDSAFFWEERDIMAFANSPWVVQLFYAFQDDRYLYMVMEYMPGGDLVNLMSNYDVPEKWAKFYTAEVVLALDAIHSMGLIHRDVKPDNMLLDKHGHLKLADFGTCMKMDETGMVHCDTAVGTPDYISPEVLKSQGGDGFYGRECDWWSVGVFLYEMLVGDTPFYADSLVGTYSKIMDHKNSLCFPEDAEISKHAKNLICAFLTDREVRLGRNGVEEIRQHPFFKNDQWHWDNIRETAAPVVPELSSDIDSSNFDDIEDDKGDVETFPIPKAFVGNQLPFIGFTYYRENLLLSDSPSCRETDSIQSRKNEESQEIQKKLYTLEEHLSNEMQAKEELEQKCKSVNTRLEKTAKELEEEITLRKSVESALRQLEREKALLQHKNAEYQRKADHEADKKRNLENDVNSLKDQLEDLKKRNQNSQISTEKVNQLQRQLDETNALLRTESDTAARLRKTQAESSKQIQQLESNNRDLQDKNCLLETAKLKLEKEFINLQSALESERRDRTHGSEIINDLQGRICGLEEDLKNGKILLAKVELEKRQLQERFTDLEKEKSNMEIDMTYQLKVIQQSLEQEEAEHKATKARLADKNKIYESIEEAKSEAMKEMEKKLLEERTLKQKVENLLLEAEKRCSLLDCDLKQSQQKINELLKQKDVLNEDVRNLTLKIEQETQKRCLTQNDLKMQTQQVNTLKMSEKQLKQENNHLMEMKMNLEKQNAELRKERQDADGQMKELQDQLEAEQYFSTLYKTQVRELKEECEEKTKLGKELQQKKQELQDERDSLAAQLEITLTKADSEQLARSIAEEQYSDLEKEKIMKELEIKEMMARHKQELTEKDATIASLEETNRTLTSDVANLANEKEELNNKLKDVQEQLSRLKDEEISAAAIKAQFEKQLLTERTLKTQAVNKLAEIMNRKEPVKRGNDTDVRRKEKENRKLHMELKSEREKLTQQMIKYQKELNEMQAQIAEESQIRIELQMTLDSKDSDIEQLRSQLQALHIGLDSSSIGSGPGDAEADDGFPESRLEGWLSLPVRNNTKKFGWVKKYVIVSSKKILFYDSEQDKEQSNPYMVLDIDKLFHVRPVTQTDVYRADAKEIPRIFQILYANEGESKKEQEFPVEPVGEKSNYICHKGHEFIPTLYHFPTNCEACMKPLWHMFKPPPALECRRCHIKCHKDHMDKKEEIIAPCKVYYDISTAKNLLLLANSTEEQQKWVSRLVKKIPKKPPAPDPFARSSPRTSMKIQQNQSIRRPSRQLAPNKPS

Structure (SMILES)	IC50
COc1cc(N2CCC3(CCN(C(=O)c4ccc(N5CCN(C)CC5)cc4Cl)CC3)C2=O)ccc1-c1cn[nH]c1 [Example 27, 8-[2-chloro-4-(4-methylpiperazin-1-yl)benzoyl]-2-[3-methoxy-4-(1H-pyrazol-4-yl)phenyl]-2,8-diazaspiro[4.5]decan-1-one]	0.8 nM
COc1cc(F)c(C(=O)N2CCC3(CC2)CCN(c2ccc(-c4cn[nH]c4)c(OC)c2)C3=O)c(F)c1 [Example 28, 8-(2,6-difluoro-4-methoxybenzoyl)-2-[3-methoxy-4-(1H-pyrazol-4-yl)phenyl]-2,8-diazaspiro[4.5]decan-1-one]	5 nM
COc1cc(OC)c(C(=O)N2CCC3(CC2)CCN(c2ccc(-c4cn[nH]c4)c(OC)c2)C3=O)c(OC)c1 [Example 29, 2-[3-methoxy-4-(1H-pyrazol-4-yl)phenyl]-8-(2,4,6-trimethoxybenzoyl)-2,8-diazaspiro[4.5]decan-1-one]	336 nM
COc1cc(N2CCC3(CCN(C(=O)c4c(C)cc(C(N)=O)cc4C)CC3)C2=O)ccc1-c1cn[nH]c1 [Example 30, 4-{2-[3-methoxy-4-(1H-pyrazol-4-yl)phenyl]-1-oxo-2,8-diazaspiro[4.5]decane-8-carbonyl}-3,5-dimethylbenzamide]	130 nM
CN1CCN(c2ccc(C(=O)N3CCC4(CC3)CCN(c3ccc(-c5cn[nH]c5)cc3)C4=O)cc2)CC1 [Example 31, 8-[4-(4-methylpiperazin-1-yl)benzoyl]-2-[4-(1H-pyrazol-4-yl)phenyl]-2,8-diazaspiro[4.5]decan-1-one]	0.7 nM
CN1CCN(c2ccc(C(=O)N3CCC4(CC3)CCN(c3ccc(-c5ccnc(O)c5)cc3)C4=O)cc2)CC1 [Example 32, 2-[4-(2-hydroxypyridin-4-yl)phenyl]-8-[4-(4-methylpiperazin-1-yl)benzoyl]-2,8-diazaspiro[4.5]decan-1-one]	54 nM
CN1CCN(c2ccc(C(=O)N3CCC4(CC3)CCN(c3ccc(-c5ccncc5F)cc3)C4=O)cc2)CC1 [Example 33, 2-[4-(3-fluoropyridin-4-yl)phenyl]-8-[4-(4-methylpiperazin-1-yl)benzoyl]-2,8-diazaspiro[4.5]decan-1-one]	1.3 nM
CN1CCN(c2ccc(C(=O)N3CCC4(CC3)CCN(c3ccc(-c5ccc6cn[nH]c6c5)cc3)C4=O)cc2)CC1 [Example 34, 2-[4-(1H-indazol-6-yl)phenyl]-8-[4-(4-methylpiperazin-1-yl)benzoyl]-2,8-diazaspiro[4.5]decan-1-one]	106 nM
CN1CCN(c2ccc(C(=O)N3CCC4(CC3)CCN(c3ccc(-c5ccnc6[nH]ccc56)cc3)C4=O)cc2)CC1 [Example 35, 8-[4-(4-methylpiperazin-1-yl)benzoyl]-2-(4-{1H-pyrrolo[2,3-b]pyridin-4-yl}phenyl)-2,8-diazaspiro[4.5]decan-1-one]	0.3 nM
CN1CCN(c2ccc(C(=O)N3CCC4(CC3)CCN(c3ccc(-c5ccnc(N)c5)cc3)C4=O)cc2)CC1 [Example 36, 2-[4-(2-aminopyridin-4-yl)phenyl]-8-[4-(4-methylpiperazin-1-yl)benzoyl]-2,8-diazaspiro[4.5]decan-1-one]	2 nM
CN1CCN(c2ccc(C(=O)N3CCC4(CC3)CCN(c3ccc(-c5ccc6[nH]ncc6c5)cc3)C4=O)cc2)CC1 [Example 37, 2-[4-(1H-indazol-5-yl)phenyl]-8-[4-(4-methylpiperazin-1-yl)benzoyl]-2,8-diazaspiro[4.5]decan-1-one]	0.5 nM
CN1CCN(c2ccc(C(=O)N3CCC4(CC3)CCN(c3ccc(-c5ccc6nn[nH]c6c5)cc3)C4=O)cc2)CC1 [Example 38, 2-[4-(1H-1,2,3-benzotriazol-6-yl)phenyl]-8-[4-(4-methylpiperazin-1-yl)benzoyl]-2,8-diazaspiro[4.5]decan-1-one]	116 nM
COc1ccc(C(=O)N2CCC3(CC2)CCN(c2ccc(-c4cn[nH]c4)c(OC)n2)C3=O)cc1 [Example 39, 2-[6-methoxy-5-(1H-pyrazol-4-yl)pyridin-2-yl]-8-(4-methoxybenzoyl)-2,8-diazaspiro[4.5]decan-1-one]	4 nM
